Measured values from the supplement of paper PMC8498969.

Assays:
HEK293 [1] = assay: cytotoxicity IC50 (ATP content, uninfected cells); higher = less cytotoxic; settings: infection: none
HEK293 [2] = assay: maximal inhibition of ZIKV NS1 production (% inhibition); higher = stronger antiviral effect
Description: (§1)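 HEK293 cells in 1536-well plates were pre-treated with compound for 1 h, infected with ZIKV (MOI 1) for 24 h, and NS1 antigen (intra- plus extracellular) was measured by TR-FRET. Confirmation used 11-point 1:3 dilutions, and IC50 and maximal inhibition were fitted in GraphPad Prism.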

HEK293 [3] = assay: IC50 for inhibition of ZIKV NS1 production
Description: as §1

Structure (SMILES)	cytotoxicity IC50 (HEK293 [1]) [µM]	maximal inhibition (HEK293 [2])	IC50 (HEK293 [3]) [µM]
CC(C)(C)c1cnc(CSc2cnc(NC(=O)C3CCNCC3)s2)o1	> 100	93	1.9
S=c1nc[nH]c2nc[nH]c12	6.5	99	12
CN(C)C(=S)SSC(=S)N(C)C	0.18	99	0.51
C[C@@H]1O[C@@H](O[C@@H]2C=C3CC[C@@H]4[C@H](CC[C@]5(C)[C@@H](c6ccc(=O)oc6)CC[C@]45O)[C@@]3(C)CC2)[C@H](O)[C@H](O)[C@H]1O	0.011	105	0.027
COc1cc(NCc2ccc3nc(N)nc(N)c3c2C)cc(OC)c1OC	2.2	99	1.6
COC(=O)Nc1nc2cc(C(=O)c3cccs3)ccc2[nH]1	> 100	68	1.1
Oc1ccc(-c2ccc(-c3cc(Nc4cccc(CNC5CC5)c4)n[nH]3)cc2)c(O)c1	27	108	1.5
CS(=O)(=O)N1CCN(Cc2cc3nc(-c4cccc5[nH]ncc45)nc(N4CCOCC4)c3s2)CC1	70	65	5.6
O=[N+]([O-])c1ccc2c(c1)S(=O)(=O)C=C2	7.2	103	11
CC[C@@H](C(=O)[C@@H](C)[C@@H](O)[C@H](C)[C@@H]1O[C@@H]([C@@H](CC)C(=O)O)CC[C@@H]1C)[C@H]1O[C@]2(C=C[C@@H](O)[C@]3(CC[C@@](C)([C@H]4CC[C@](O)(CC)[C@H](C)O4)O3)O2)[C@H](C)C[C@@H]1C	27	106	17
CN(C)CCN(C)C(=O)c1ccc(NC(=O)Nc2ccc(-c3nc(N4CCOCC4)c4ccn(CC(F)(F)F)c4n3)cc2)cc1	3.4	76	2.9
O=C(Cc1ccc(-c2ccc(OCCN3CCOCC3)cc2)cn1)NCc1ccccc1	19	50	0.48
CS[C@H]1SC[C@H]2C(=O)N(C)[C@@H](C(C)C)C(=O)OC[C@@H](NC(=O)c3cnc4ccccc4n3)C(=O)N[C@@H](C)C(=O)N(C)[C@@H]1C(=O)N(C)[C@@H](C(C)C)C(=O)OC[C@@H](NC(=O)c1cnc3ccccc3n1)C(=O)N[C@@H](C)C(=O)N2C	> 100	98	0.017
Cc1ccc(-c2ncn(-c3ccc(Nc4nccc(-c5cccc(N6CCOCC6)c5)n4)cc3)n2)cn1	9.8	87	1.9
O=C1c2ccccc2-[n+]2ccc3c([nH]c4ccccc43)c21	7.5	86	2
C=CC(=O)N1CCc2ccc(-n3c(=O)ccc4cnc5ccc(-c6cnn(C)c6)cc5c43)cc21	> 100	105	13
CCCCCC(=O)O[C@]1(C(C)=O)CC[C@H]2[C@@H]3CCC4=CC(=O)CC[C@]4(C)[C@H]3CC[C@@]21C	7.9	99	50
CC1=C(CO)C(=O)O[C@@H]([C@@H](C)[C@H]2CC[C@H]3[C@@H]4C[C@H]5O[C@]56[C@@H](O)C=CC(=O)[C@]6(C)[C@H]4CC[C@]23C)C1	2.8	102	2.8
COc1ccc(-c2ccc3ncc4c(c3c2)n(-c2ccc(N3CCNCC3)c(C(F)(F)F)c2)c(=O)n4C)cn1	20	102	1.6
CC[C@@H]([C@H](C)O)n1ncn(-c2ccc(N3CCN(c4ccc(OC[C@@H]5CO[C@@](Cn6cncn6)(c6ccc(F)cc6F)C5)cc4)CC3)cc2)c1=O	9.7	73	18

Structure (SMILES)	cytotoxicity IC50 (HEK293 [1]) [µM]	maximal inhibition (HEK293 [2])	IC50 (HEK293 [3]) [µM]
C#CCC(Cc1cnc2nc(N)nc(N)c2n1)c1ccc(C(=O)N[C@@H](CCC(=O)O)C(=O)O)cc1 (stereo not given in full)	0.46	101	0.45
O=C1NCCc2[nH]c(-c3ccncc3)cc21	> 100	85	20
COc1cccc2c1C(=O)c1c(O)c3c(c(O)c1C2=O)C[C@@](O)(C(=O)CO)C[C@@H]3O[C@H]1C[C@H](N)[C@H](O[C@@H]2CCCCO2)[C@H](C)O1	> 100	75	5.6
CO[C@@]12[C@H](COC(N)=O)C3=C(C(=O)C(C)=C(N)C3=O)N1C[C@@H]1N[C@@H]12	73	97	2.7
O=C1NCCN1CCN1CCC(c2cn(-c3ccc(F)cc3)c3ccc(Cl)cc23)CC1	6.5	99	7.4
CCOC(=O)C1(c2ccccc2)CCN(CCC(C#N)(c2ccccc2)c2ccccc2)CC1	9.2	105	6
CC(C)C[C@H](NC(=O)[C@@H](NC(=O)c1cccc(-c2ccccc2)n1)[C@@H](C)O)B(O)O	0.3	95	0.059
C=C1C(=O)O[C@H]2[C@H]1CC/C(C)=C/CC[C@@]1(C)O[C@@H]21	20	106	43
C[C@@H]1C[C@@H]([C@H](O)CC2CC(=O)NC(=O)C2)C(=O)[C@@H](C)C1	> 100	102	0.29
CNc1ccc2oc(C[C@H]3O[C@@]4(CC[C@H]3C)O[C@H]([C@H](C)C(=O)c3ccc[nH]3)[C@H](C)C[C@H]4C)nc2c1C(=O)O	20	96	6.2
CCc1c2c(nc3ccc(OC(=O)N4CCC(N5CCCCC5)CC4)cc13)-c1cc3c(c(=O)n1C2)COC(=O)[C@]3(O)CC	> 100	97	1.6
O=[N+]([O-])c1ccc(O)c2ncccc12	4.7	94	6
CC[C@@]1(O)C(=O)OCc2c1cc1n(c2=O)Cc2cc3c(CN(C)C)c(O)ccc3nc2-1	> 100	96	0.051
CC1(C(=O)O)C2CCC(O2)C1(C)C(=O)O (stereo not given)	> 100	105	2.6
CCCOc1ccc2[nH]c(NC(=O)OC)nc2c1	86	67	4.9
COc1cccc(-c2ccc(NC(=O)C3=C(C(=O)O)CCC3)c(F)c2)c1	1.9	107	4
OCCCNc1cc(-c2ccnc(Nc3cccc(Cl)c3)n2)ccn1	60	103	0.79
CC(C)C[C@H](NC(=O)[C@H](CCc1ccccc1)NC(=O)CN1CCOCC1)C(=O)N[C@@H](Cc1ccccc1)C(=O)N[C@@H](CC(C)C)C(=O)[C@@]1(C)CO1	0.32	90	0.16
Cn1cc(-c2[nH]c3cc(NC(=O)[C@H](N)C4CCCCC4)cc4c3c2C=NNC4=O)cn1	> 100	104	0.49
CSc1cccc(Nc2ncc3cc(-c4c(Cl)cccc4Cl)c(=O)n(C)c3n2)c1	6.6	98	8.4
